From patent US20260285850A1, “SUBSTITUTED OXAZOLIDINONES AND IMIDAZOLINONES AS HERBICIDES” (FMC CORPORATION, priority 2023, published 2026)

Legend:
Format in all cases: in vivo
[1] = system: barnyardgrass (Echinochloa crus-galli); test: Test A preemergence soil spray, visual injury rating 0-100; conditions: 10 days, 0 = no effect, 100 = complete control
Text: (§1) Seeds of plant species selected from barnyardgrass (Echinochloa crus-galli), blackgrass (Alopecurus myosuroides), corn (Zea mays), foxtail, giant (giant foxtail, Setaria faberi), green foxtail (Setaria viridis), goosegrass (Eleusine indica), kochia (Bassia scoparia), oat, wild (wild oat, Avena fatua), palmer (palmer amaranth, palmer pigweed, Amaranthus palmeri), ragweed (common ragweed, Ambrosia artemisiifolia), ryegrass, Italian (italian ryegrass, Lolium multiflorum), soybean (Glycine max) and wheat (Triticum aestivum) were planted into a blend of loam soil and sand and treated preemergence with a directed soil spray using test chemicals formulated in a non-phytotoxic solvent mixture which included a surfactant.
(§2) At the same time, plants selected from these crops and weed species and also galium (catchweed bedstraw, Galium aparine) and horseweed (Erigeron canadensis) were planted in pots containing the same blend of loam soil and sand and treated with postemergence applications of test chemicals formulated in the same manner. Plants ranged in height from 2 to 10 cm and were in the one- to two-leaf stage for the postemergence treatment. Treated plants and untreated controls were maintained in a greenhouse for 10 days, after which time all treated plants were compared to untreated controls and visually evaluated for injury. Plant response ratings, summarized in Table A, are based on a 0 to 100 scale where 0 is no effect and 100 is complete control. A dash (-) response means no test result.

[2] = system: blackgrass (Alopecurus myosuroides); test: as above; conditions: 10 days, 0 = no effect, 100 = complete control
Text: as §1, §2

corn (Zea mays) [3] = test: as above; conditions: 10 days, 0 = no effect, 100 = complete control
Text: as §1, §2

[4] = system: green foxtail (Setaria viridis); test: as above; conditions: 10 days, 0 = no effect, 100 = complete control
Text: as §1, §2

kochia (Bassia scoparia) [5] = test: as above; conditions: 10 days, 0 = no effect, 100 = complete control
Text: as §1, §2

[6] = system: oat, wild (wild oat, Avena fatua); test: as above; conditions: 10 days, 0 = no effect, 100 = complete control
Text: as §1, §2

[7] = system: palmer (palmer amaranth, palmer pigweed, Amaranthus palmeri); test: as above; conditions: 10 days, 0 = no effect, 100 = complete control
Text: as §1, §2

[8] = system: ragweed (common ragweed, Ambrosia artemisiifolia); test: as above; conditions: 10 days, 0 = no effect, 100 = complete control
Text: as §1, §2

[9] = system: ryegrass, Italian (italian ryegrass, Lolium multiflorum); test: as above; conditions: 10 days, 0 = no effect, 100 = complete control
Text: as §1, §2

soybean (Glycine max) [10] = test: as above; conditions: 10 days, 0 = no effect, 100 = complete control
Text: as §1, §2

[11] = system: wheat (Triticum aestivum); test: as above; conditions: 10 days, 0 = no effect, 100 = complete control
Text: as §1, §2

[12] = system: barnyardgrass (Echinochloa crus-galli); test: Test A postemergence application, visual injury rating 0-100; conditions: 10 days
Text: as §1, §2

[13] = system: blackgrass (Alopecurus myosuroides); test: as above; conditions: 10 days
Text: as §1, §2

corn (Zea mays) [14] = test: as above; conditions: 10 days
Text: as §1, §2

[15] = system: green foxtail (Setaria viridis); test: as above; conditions: 10 days
Text: as §1, §2

[16] = system: horseweed (Erigeron canadensis); test: as above; conditions: 10 days
Text: as §1, §2

kochia (Bassia scoparia) [17] = test: as above; conditions: 10 days
Text: as §1, §2

[18] = system: oat, wild (wild oat, Avena fatua); test: as above; conditions: 10 days
Text: as §1, §2

[19] = system: palmer (palmer amaranth, palmer pigweed, Amaranthus palmeri); test: as above; conditions: 10 days
Text: as §1, §2

[20] = system: ragweed (common ragweed, Ambrosia artemisiifolia); test: as above; conditions: 10 days
Text: as §1, §2

[21] = system: ryegrass, Italian (italian ryegrass, Lolium multiflorum); test: as above; conditions: 10 days
Text: as §1, §2

soybean (Glycine max) [22] = test: as above; conditions: 10 days
Text: as §1, §2

[23] = system: wheat (Triticum aestivum); test: as above; conditions: 10 days
Text: as §1, §2

[24] = system: barnyardgrass (Echinochloa crusgalli); test: Test B flooded paddy test, visual plant response rating 0-100; conditions: 250 g ai/ha, Flood, applied to paddy water, evaluated after 13 days
Experimental: (§3) Plant species in the flooded paddy test selected from barnyardgrass (Echinochloa crusgalli), ducksalad (Heteranthera limosa), rice (Oryza sativa), and sedge, umbrella (small-flower umbrella sedge, Cyperus difformis) were grown to the 2-leaf stage for testing. At time of treatment, test pots were flooded to 3 cm above the soil surface, treated by application of test compounds directly to the paddy water, and then maintained at that water depth for the duration of the test. Treated plants and controls were maintained in a greenhouse for 13 days, after which time all species were compared to controls and visually evaluated. […] A dash (-) response means no test result.

[25] = system: ducksalad (Heteranthera limosa); test: as above; conditions: 250 g ai/ha, Flood, applied to paddy water, evaluated after 13 days
Experimental: as §3

rice (Oryza sativa) = test: as above; conditions: 250 g ai/ha, Flood, applied to paddy water, evaluated after 13 days
Experimental: as §3

[26] = system: sedge, umbrella (small-flower umbrella sedge, Cyperus difformis); test: as above; conditions: 250 g ai/ha, Flood, applied to paddy water, evaluated after 13 days
Experimental: as §3

[27] = 31 g ai/ha, postemergence, 0 = no effect, 100 = complete control
[28] = Postemergence, 125 g ai/ha, 0 is no effect, 100 is complete control

## CC1(C(=O)NC2CCC(C(=O)O)C2)CN(c2cc(F)cc(F)c2)C(=O)O1 (centres unmarked) [Compound 9]
[1]; 31 g ai/ha
  Barnyardgrass plant response rating (0-100): 0
[1]; 125 g ai/ha
  Barnyardgrass plant response rating (0 to 100 scale): 50
[2]; 31 g ai/ha
  Blackgrass plant response rating (0-100): 0
[2]; 125 g ai/ha
  Blackgrass plant response rating (0 to 100 scale): 80
Corn (Zea mays) [3]; 31 g ai/ha
  Corn plant response rating (0-100): 10
Corn (Zea mays) [3]; 125 g ai/ha
  Corn plant response rating (0 to 100 scale): 80
[4]; 31 g ai/ha
  Foxtail, Green plant response rating (0-100): 0
[4]; 125 g ai/ha
  Foxtail, Green plant response rating (0 to 100 scale): 90
Kochia (Bassia scoparia) [5]; 31 g ai/ha
  Kochia plant response rating (0-100): 0
Kochia (Bassia scoparia) [5]; 125 g ai/ha
  Kochia plant response rating (0 to 100 scale): 30
[6]; 31 g ai/ha
  Oat, Wild plant response rating (0-100): 0
[6]; 125 g ai/ha
  Oat, Wild plant response rating (0 to 100 scale): 90
[7]; 31 g ai/ha
  Amaranth, Palmer plant response rating (0-100): 0
[7]; 125 g ai/ha
  Amaranth, Palmer plant response rating (0 to 100 scale): 10
[8]; 31 g ai/ha
  Ragweed plant response rating (0-100): 0
[8]; 125 g ai/ha
  Ragweed plant response rating (0 to 100 scale): 0
[9]; 31 g ai/ha
  Ryegrass, Italian plant response rating (0-100): 0
[9]; 125 g ai/ha
  Ryegrass, Italian plant response rating (0 to 100 scale): 90
Soybean (Glycine max) [10]; 31 g ai/ha
  Soybean plant response rating (0-100): 0
Soybean (Glycine max) [10]; 125 g ai/ha
  Soybean plant response rating (0 to 100 scale): 80
[11]; 31 g ai/ha
  Wheat plant response rating (0-100): 80
[11]; 125 g ai/ha
  Wheat plant response rating (0 to 100 scale): 90
[12]; [27]
  Barnyardgrass plant response rating (0-100): 70
[12]; [28]
  Barnyardgrass plant response rating (0 to 100 scale): 100
[13]; [27]
  Blackgrass plant response rating (0-100): 60
[13]; [28]
  Blackgrass plant response rating (0 to 100 scale): 70
Corn (Zea mays) [14]; [27]
  Corn plant response rating (0-100): 20
Corn (Zea mays) [14]; [28]
  Corn plant response rating (0 to 100 scale): 100
[15]; [27]
  Foxtail, Green plant response rating (0-100): 30
[15]; [28]
  Foxtail, Green plant response rating (0 to 100 scale): 90
[16]; [27]
  Horseweed plant response rating (0-100): 0
[16]; [28]
  Horseweed plant response rating (0 to 100 scale): 10
Kochia (Bassia scoparia) [17]; [27]
  Kochia plant response rating (0-100): 50
Kochia (Bassia scoparia) [17]; [28]
  Kochia plant response rating (0 to 100 scale): 80
[18]; [27]
  Oat, Wild plant response rating (0-100): 90
[18]; [28]
  Oat, Wild plant response rating (0 to 100 scale): 90
[19]; [27]
  Amaranth, Palmer plant response rating (0-100): 10
[19]; [28]
  Amaranth, Palmer / Pigweed, Palmer plant response rating (0 to 100 scale): 90
[20]; [27]
  Ragweed plant response rating (0-100): 0
[20]; [28]
  Ragweed plant response rating (0 to 100 scale): 0
[21]; [27]
  Ryegrass, Italian plant response rating (0-100): 50
[21]; [28]
  Ryegrass, Italian plant response rating (0 to 100 scale): 80
Soybean (Glycine max) [22]; [27]
  Soybean plant response rating (0-100): 60
Soybean (Glycine max) [22]; [28]
  Soybean plant response rating (0 to 100 scale): 70
[23]; [27]
  Wheat plant response rating (0-100): 90
[23]; [28]
  Wheat plant response rating (0 to 100 scale): 90
[24]
  Plant response rating, Barnyardgrass (0 to 100 scale, 0 is no effect and 100 is complete control): 0
[25]
  Plant response rating, Ducksalad (0 to 100 scale, 0 is no effect and 100 is complete control): 0
Rice (Oryza sativa)
  Plant response rating, Rice (0 to 100 scale, 0 is no effect and 100 is complete control): 0
[26]
  Plant response rating, Sedge, Umbrella (0 to 100 scale, 0 is no effect and 100 is complete control): 0
